{
  "source": "patent US20110144376A1",
  "about": "“DERMATOLOGICAL AGENT” (SHOWA DENKO K.K., priority 2008, published 2011)",
  "key": {"[1]": {"test_system": "three dimensional human skin model MEL-300 (normal human skin keratinocytes containing normal human epidermal melanocytes)", "assay": "Melanin synthesis inhibitory test (three dimensional human skin model)", "format": "cell-based", "conditions": "0.1 ml of a 30 mmol/l solution, MEL-300 cups, 14 days of incubation, vs 0.2% ethanol control, Scheffe, significance level 1%, n=3 (FIG. 2)", "procedure": "(§1) Melanin formation inhibitory effects of the compounds 4 or 5 shown in Table 1 were evaluated using three dimensional human skin model MEL-300 (normal human skin keratinocytes containing normal human epidermal melanocytes). The MEL-300 skin model cups were transferred to a 6-well plate, each well containing 0.9 ml of EPI-100-LLMM maintenance medium, and were pre-incubated at 37° C. and 5% CO2 for 1 hour.\nThe maintenance medium was suction removed, and 5 ml of the maintenance medium was newly added. Thereafter, 0.1 ml of a 30 mmol/l solution of the compound 4 or 5 was added to the MEL-300 skin model cups, and the resultant were incubated. The controls were given 0.1 ml of a 0.2% ethanol solution. The positive controls were given 0.1 ml of a 30 mmol/l kojic acid solution.\nThe maintenance medium and the test substance were replaced every two days, and the incubation was performed for 14 days. […]\nAfter the reaction, the reaction liquid was sufficiently stirred and the incubated skin piece was completely crushed. […] The supernatant was analyzed to determine the absorbance at 405 nm. A linear calibration curve was prepared based on the absorbances of melanin solutions of known concentrations that had been treated similarly. The melanin contents in the incubated skin pieces were thus determined. […]"}, "C3H mice": {"test_system": "C3H mice", "assay": "Accelerating effects for mouse body hair growth", "format": "in vivo", "conditions": "male C3H/HeN mice, shaved dorsal region, 0.1 ml of a 50 μmol/g ointment once a day, Day 18, vs coating stimulation only, Scheffe, significance level 5%, n=6 (FIG. 3)", "procedure": "Male C3H/HeN that were seven weeks old in a telogen hair cycle were used.\nThe dorsal region of the mice was shaved with an electrical hair clipper (0.05 mm blades) and an electrical shaver. From the next day, 0.1 ml of a 50 μmol/g ointment of the compound 4 or 5 was coated on the shaved regions once a day using a bacteria spreader. The controls were given only coating stimulation with a bacteria spreader.\nThe dorsal region of the mice on Day 18 after the initiation of coating was photographed. The proportion of the area of the region where hair had regrown relative to the total area of the shaved region was calculated by image analysis. The value obtained thereby indicated the hair regrowth rate (%). Significant difference was tested by a post-hoc test (Scheffe method). The significance level was 5%.\nIn this experiment, n=6 for the test substances and n=7 for the controls."}, "[2]": {"test_system": "three dimensional human skin model MEL-300 (normal human skin keratinocytes containing normal human epidermal melanocytes)", "assay": "Inhibitory effects for melanocyte dendrite formation (three dimensional human skin model)", "format": "cell-based", "conditions": "0.1 ml of a 30 mmol/l solution, MEL-300 cups, 7 days of incubation, vs 0.2% ethanol control, Scheffe, significance level 5%, n=3 (FIG. 1)", "procedure": "as §1, with “4 and” for “4 or”\nThe maintenance medium was suction removed, and 5 ml of the maintenance medium was newly added. Thereafter, 0.1 ml of a 30 mmol/l solution of the compound 4 or 5 was added to the MEL-300 skin model cups, and the resultant were incubated. The controls were given 0.1 ml of a 0.2% ethanol solution.\nThe maintenance medium and the test substance were replaced every two days, and the incubation was performed for 7 days. After the 7 days of incubation, the cells inside the three dimensional human skin model cup were photographed, and the proportion (%) of the area of melanocytes was calculated by image analysis. Significant difference was tested by a post-hoc test (Scheffe method). The significance level was 5%. […] In this experiment, n=3."}, "[3]": {"conditions": "background art statement; cited from earlier work"}},
  "data": [
    {"smiles": "COc1c(OC(=O)CN(C)C)c(C)c(CC=C(C)CCC=C(C)CCC=C(C)CCC=C(C)CCC=C(C)CCC=C(C)CCC=C(C)CCC=C(C)CCC=C(C)CCC=C(C)C)c(OC(=O)CN(C)C)c1OC.Cl", "note": "[Compound 4, 2,3-dimethoxy-5-methyl-6-decaisoprenylbenzene 1,4-bis-N,N-dimethyl glycinate hydrochloride]", "values": [
      {"measurement": "melanin production (melanin contents in the incubated skin pieces, absorbance at 405 nm)", "setting": "[1]", "value": "significantly decreased"},
      {"measurement": "hair regrowth rate (%)", "setting": "C3H mice", "value": "significantly increased"},
      {"measurement": "formation of melanocyte dendrites (proportion (%) of the area of melanocytes by image analysis)", "setting": "[2]", "value": "significantly inhibited"}
    ]},
    {"smiles": "COC1=C(OC)C(=O)C(CC=C(C)CCC=C(C)CCC=C(C)CCC=C(C)CCC=C(C)CCC=C(C)CCC=C(C)CCC=C(C)CCC=C(C)CCC=C(C)C)=C(C)C1=O", "note": "[ubiquinone-10, 2,3-dimethoxy-5-methyl-6-decaisoprenyl-1,4-benzoquinone]", "values": [
      {"measurement": "solubility in water", "setting": "[3]", "value": "completely insoluble in water"}
    ]},
    {"smiles": "COc1c(O)c(CC=C(C)CCC=C(C)CCC=C(C)CCC=C(C)CCC=C(C)CCC=C(C)CCC=C(C)CCC=C(C)CCC=C(C)CCC=C(C)C)c(C)c(OC(=O)CN(C)C)c1OC.Cl", "note": "[Compound 5, 2,3-dimethoxy-5-methyl-6-decaisoprenyl-1-hydroxybenzene 4-N,N-dimethyl glycinate hydrochloride]", "values": [
      {"measurement": "melanin production (melanin contents in the incubated skin pieces, absorbance at 405 nm)", "setting": "[1]", "value": "significantly decreased"},
      {"measurement": "hair regrowth rate (%)", "setting": "C3H mice", "value": "significantly increased"},
      {"measurement": "formation of melanocyte dendrites (proportion (%) of the area of melanocytes by image analysis)", "setting": "[2]", "value": "significantly inhibited"}
    ]}
  ]
}
